{"source": "paper PMC7407272", "about": "“Induction of Lysosome Membrane Permeabilization as a Therapeutic Strategy to Target Pancreatic Cancer Stem Cells” (Cancers, 2020)", "key": {"TYK2": {"molecular_target": "T1, TYK2 (Homo sapiens, UniProt P29597)", "T1 construct": "purchased ProQinase", "test": "TYK2 kinase assay (ProQinase)", "assay_type": "biochemical", "settings": "kinase orthogonal assay"}, "FLT1": {"molecular_target": "T2, FLT1 (Homo sapiens, UniProt P17948)", "T2 construct": "purchased DiscoveRx KINOMEscan", "T2 sequence (P17948 27-1338)": "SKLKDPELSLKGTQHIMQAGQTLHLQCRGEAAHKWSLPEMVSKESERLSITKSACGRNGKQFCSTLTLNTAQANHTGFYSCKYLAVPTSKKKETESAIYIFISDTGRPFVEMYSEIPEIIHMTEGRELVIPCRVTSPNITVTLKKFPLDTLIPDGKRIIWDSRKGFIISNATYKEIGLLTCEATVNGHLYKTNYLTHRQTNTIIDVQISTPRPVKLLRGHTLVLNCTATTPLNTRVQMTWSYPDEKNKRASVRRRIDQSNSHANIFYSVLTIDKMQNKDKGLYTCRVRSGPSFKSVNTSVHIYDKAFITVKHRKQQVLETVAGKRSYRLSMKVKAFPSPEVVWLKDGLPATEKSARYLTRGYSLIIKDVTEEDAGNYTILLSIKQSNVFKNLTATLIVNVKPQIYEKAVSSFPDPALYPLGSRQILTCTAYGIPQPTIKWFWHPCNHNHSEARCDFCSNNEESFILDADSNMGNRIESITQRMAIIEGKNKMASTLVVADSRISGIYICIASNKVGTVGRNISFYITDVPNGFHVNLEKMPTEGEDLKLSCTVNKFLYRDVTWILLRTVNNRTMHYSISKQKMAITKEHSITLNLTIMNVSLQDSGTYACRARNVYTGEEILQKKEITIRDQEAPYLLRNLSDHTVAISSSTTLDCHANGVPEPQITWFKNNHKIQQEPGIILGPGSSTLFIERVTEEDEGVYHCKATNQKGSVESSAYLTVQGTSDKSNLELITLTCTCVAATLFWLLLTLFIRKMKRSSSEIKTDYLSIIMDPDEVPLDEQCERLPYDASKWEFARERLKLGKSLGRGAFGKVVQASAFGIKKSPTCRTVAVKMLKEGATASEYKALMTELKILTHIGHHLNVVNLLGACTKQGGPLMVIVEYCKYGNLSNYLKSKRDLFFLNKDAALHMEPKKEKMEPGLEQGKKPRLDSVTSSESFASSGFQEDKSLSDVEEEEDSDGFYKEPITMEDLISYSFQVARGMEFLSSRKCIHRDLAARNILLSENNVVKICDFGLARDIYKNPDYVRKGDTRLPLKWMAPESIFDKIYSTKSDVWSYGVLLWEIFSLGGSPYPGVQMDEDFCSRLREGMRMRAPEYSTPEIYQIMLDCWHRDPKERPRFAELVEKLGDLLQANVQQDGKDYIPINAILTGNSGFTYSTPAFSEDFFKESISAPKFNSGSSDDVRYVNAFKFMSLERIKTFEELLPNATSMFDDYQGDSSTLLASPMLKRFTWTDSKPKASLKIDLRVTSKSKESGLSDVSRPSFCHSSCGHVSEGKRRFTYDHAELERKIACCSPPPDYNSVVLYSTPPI", "test": "KINOMEscan", "assay_type": "binding", "settings": "read-out: % Ctrl"}, "PHKG1": {"molecular_target": "T3, PHKG1 (Homo sapiens, UniProt Q16816)", "T3 construct": "purchased DiscoveRx KINOMEscan", "test": "KINOMEscan", "assay_type": "binding", "settings": "read-out: % Ctrl"}, "PHKG2": {"molecular_target": "T4, PHKG2 (Homo sapiens, UniProt P15735)", "T4 construct": "purchased DiscoveRx KINOMEscan", "test": "KINOMEscan", "assay_type": "binding", "settings": "read-out: % Ctrl"}, "PIK3C2B": {"molecular_target": "T5, PIK3C2B (Homo sapiens, UniProt O00750)", "T5 construct": "purchased DiscoveRx KINOMEscan", "test": "KINOMEscan", "assay_type": "binding", "settings": "read-out: % Ctrl"}, "ACVRL1": {"molecular_target": "T6, ACVRL1 (Homo sapiens, UniProt P37023)", "T6 construct": "purchased DiscoveRx KINOMEscan", "T6 sequence (P37023 22-503)": "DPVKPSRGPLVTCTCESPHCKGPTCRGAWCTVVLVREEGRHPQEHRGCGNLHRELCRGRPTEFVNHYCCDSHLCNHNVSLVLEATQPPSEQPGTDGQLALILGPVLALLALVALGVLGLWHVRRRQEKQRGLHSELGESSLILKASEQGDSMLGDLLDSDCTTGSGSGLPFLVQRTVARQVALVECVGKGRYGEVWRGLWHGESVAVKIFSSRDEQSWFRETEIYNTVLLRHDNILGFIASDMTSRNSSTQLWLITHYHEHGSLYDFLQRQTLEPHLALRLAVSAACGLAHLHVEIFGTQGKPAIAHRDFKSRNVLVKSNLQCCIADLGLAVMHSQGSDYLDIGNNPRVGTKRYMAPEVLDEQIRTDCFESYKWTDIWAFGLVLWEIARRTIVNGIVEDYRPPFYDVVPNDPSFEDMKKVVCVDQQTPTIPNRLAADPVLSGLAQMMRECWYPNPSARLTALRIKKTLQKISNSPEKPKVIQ", "test": "KINOMEscan", "assay_type": "binding", "settings": "read-out: % Ctrl"}, "BRAF(V600E)": {"molecular_target": "T7, BRAF(V600E) (Homo sapiens, UniProt P15056, V600E)", "T7 construct": "purchased DiscoveRx KINOMEscan", "T7 sequence (P15056 whole entry V600E)": "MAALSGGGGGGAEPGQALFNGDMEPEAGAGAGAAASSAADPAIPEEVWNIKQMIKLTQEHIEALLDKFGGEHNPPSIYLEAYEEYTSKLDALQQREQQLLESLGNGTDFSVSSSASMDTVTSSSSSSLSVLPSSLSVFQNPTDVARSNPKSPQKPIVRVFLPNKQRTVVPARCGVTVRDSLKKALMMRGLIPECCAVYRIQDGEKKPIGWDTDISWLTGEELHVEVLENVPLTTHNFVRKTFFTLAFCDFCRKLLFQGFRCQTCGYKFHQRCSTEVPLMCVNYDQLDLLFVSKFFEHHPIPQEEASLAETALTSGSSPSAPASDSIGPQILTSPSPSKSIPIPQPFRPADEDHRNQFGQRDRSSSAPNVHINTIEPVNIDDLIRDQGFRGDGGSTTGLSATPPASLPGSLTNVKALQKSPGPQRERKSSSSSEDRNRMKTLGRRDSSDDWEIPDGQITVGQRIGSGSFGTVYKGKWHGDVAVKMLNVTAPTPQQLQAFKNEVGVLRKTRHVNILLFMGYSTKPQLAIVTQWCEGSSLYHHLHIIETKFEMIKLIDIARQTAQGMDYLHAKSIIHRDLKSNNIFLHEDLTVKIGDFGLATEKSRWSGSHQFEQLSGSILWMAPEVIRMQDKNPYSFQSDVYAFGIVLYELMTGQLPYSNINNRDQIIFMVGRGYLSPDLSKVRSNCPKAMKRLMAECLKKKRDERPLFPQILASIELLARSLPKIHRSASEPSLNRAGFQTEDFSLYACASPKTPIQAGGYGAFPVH", "test": "KINOMEscan", "assay_type": "binding", "settings": "read-out: % Ctrl"}, "BRSK1": {"molecular_target": "T8, BRSK1 (Homo sapiens, UniProt Q8TDC3)", "T8 construct": "purchased DiscoveRx KINOMEscan", "test": "KINOMEscan", "assay_type": "binding", "settings": "read-out: % Ctrl"}, "JNK1": {"molecular_target": "T9, JNK1 (Homo sapiens, UniProt P45983)", "T9 construct": "purchased DiscoveRx KINOMEscan", "test": "KINOMEscan", "assay_type": "binding", "settings": "read-out: % Ctrl"}, "PRKX": {"molecular_target": "T10, PRKX (Homo sapiens, UniProt P51817)", "T10 construct": "purchased DiscoveRx KINOMEscan", "test": "KINOMEscan", "assay_type": "binding", "settings": "read-out: % Ctrl"}, "KIT(A829P)": {"molecular_target": "T11, KIT(A829P) (Homo sapiens, UniProt P10721, A829P)", "T11 construct": "purchased DiscoveRx KINOMEscan", "T11 sequence (P10721 26-976 A829P)": "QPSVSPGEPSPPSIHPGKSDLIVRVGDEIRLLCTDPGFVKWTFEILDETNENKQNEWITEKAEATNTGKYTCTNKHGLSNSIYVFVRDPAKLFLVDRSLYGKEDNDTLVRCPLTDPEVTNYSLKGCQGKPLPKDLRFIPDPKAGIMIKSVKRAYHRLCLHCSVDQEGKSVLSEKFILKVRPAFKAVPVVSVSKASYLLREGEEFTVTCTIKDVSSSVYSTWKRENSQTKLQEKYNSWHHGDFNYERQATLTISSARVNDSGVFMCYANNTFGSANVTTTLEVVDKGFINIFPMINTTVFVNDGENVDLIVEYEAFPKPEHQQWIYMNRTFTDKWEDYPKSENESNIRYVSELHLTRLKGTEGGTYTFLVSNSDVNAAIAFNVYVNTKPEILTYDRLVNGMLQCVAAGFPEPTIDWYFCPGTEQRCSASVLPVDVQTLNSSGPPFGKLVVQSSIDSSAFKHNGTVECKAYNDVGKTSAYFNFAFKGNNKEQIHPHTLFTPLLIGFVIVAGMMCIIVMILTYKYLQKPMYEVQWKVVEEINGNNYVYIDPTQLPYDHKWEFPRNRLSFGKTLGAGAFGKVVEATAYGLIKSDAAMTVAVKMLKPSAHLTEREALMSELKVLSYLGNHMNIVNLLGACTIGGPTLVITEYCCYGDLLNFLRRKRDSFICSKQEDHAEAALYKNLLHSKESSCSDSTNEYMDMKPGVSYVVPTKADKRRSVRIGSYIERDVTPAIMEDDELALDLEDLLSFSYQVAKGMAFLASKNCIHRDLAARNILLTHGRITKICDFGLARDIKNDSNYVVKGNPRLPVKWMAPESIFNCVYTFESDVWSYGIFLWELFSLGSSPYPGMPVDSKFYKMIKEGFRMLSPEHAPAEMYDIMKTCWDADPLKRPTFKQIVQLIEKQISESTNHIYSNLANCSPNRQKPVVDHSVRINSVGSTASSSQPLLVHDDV", "test": "KINOMEscan", "assay_type": "binding", "settings": "read-out: % Ctrl"}, "RET(M918T)": {"molecular_target": "T12, RET(M918T) (Homo sapiens, UniProt P07949, M918T)", "T12 construct": "purchased DiscoveRx KINOMEscan", "T12 sequence (P07949 29-1114 M918T)": "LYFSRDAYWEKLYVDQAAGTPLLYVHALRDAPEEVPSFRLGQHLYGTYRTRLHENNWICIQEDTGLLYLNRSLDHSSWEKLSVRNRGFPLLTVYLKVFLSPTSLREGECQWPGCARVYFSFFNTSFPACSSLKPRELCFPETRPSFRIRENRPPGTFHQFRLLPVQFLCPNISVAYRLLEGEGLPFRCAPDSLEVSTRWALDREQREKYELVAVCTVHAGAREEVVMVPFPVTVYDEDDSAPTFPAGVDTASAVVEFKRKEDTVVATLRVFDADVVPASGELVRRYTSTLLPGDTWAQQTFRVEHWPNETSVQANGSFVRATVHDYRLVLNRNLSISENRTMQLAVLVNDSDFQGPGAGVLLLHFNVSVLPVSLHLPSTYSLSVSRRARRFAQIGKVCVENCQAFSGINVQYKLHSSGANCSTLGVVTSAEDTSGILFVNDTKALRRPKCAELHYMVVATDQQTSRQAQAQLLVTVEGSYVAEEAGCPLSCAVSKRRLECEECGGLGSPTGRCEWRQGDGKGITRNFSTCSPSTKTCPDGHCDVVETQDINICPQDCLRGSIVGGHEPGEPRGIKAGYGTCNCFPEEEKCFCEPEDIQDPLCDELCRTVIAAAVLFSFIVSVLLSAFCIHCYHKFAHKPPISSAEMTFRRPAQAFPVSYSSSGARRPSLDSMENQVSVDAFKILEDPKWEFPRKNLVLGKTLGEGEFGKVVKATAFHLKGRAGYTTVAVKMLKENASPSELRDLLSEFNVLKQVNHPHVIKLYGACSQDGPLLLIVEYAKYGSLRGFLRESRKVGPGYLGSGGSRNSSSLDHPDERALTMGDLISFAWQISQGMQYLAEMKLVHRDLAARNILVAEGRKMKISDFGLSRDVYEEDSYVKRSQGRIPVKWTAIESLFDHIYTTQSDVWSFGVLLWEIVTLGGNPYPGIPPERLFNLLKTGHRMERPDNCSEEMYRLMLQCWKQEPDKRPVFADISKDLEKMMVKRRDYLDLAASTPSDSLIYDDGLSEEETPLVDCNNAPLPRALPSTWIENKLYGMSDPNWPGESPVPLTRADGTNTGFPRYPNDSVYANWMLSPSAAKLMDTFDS", "test": "KINOMEscan", "assay_type": "binding", "settings": "read-out: % Ctrl"}, "RIPK4": {"molecular_target": "T13, RIPK4 (Homo sapiens, UniProt P57078)", "T13 construct": "purchased DiscoveRx KINOMEscan", "test": "KINOMEscan", "assay_type": "binding", "settings": "read-out: % Ctrl"}, "LRRK2": {"molecular_target": "T14, LRRK2 (Homo sapiens, UniProt Q5S007)", "T14 construct": "purchased DiscoveRx KINOMEscan", "test": "KINOMEscan", "assay_type": "binding", "settings": "read-out: % Ctrl"}, "RPS6KA4(KD1-N-t.)": {"molecular_target": "T15, RPS6KA4(KD1-N-t.) (Homo sapiens, UniProt O75676)", "T15 construct": "RPS6KA4(KD1-N-t.); purchased DiscoveRx KINOMEscan", "T15 sequence (O75676 1-371 limits assumed)": "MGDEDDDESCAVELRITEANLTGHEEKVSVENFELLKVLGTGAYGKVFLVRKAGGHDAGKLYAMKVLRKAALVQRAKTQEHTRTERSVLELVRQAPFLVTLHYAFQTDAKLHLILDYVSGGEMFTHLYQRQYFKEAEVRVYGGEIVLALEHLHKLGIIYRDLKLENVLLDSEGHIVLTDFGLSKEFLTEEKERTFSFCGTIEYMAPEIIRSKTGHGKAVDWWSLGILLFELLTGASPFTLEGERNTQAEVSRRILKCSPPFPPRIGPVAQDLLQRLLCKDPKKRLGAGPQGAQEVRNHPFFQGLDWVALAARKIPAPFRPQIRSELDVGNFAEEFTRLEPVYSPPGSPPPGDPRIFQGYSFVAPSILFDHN", "test": "KINOMEscan", "assay_type": "binding", "settings": "read-out: % Ctrl"}, "MAK": {"molecular_target": "T16, MAK (Homo sapiens, UniProt P20794)", "T16 construct": "purchased DiscoveRx KINOMEscan", "test": "KINOMEscan", "assay_type": "binding", "settings": "read-out: % Ctrl"}, "CLK1": {"molecular_target": "T17, CLK1 (Homo sapiens, UniProt P49759)", "T17 construct": "purchased DiscoveRx KINOMEscan", "test": "KINOMEscan", "assay_type": "binding", "settings": "read-out: % Ctrl"}, "MAP4K3": {"molecular_target": "T18, MAP4K3 (Homo sapiens, UniProt Q8IVH8)", "T18 construct": "purchased DiscoveRx KINOMEscan", "test": "KINOMEscan", "assay_type": "binding", "settings": "read-out: % Ctrl"}, "CSNK1D": {"molecular_target": "T19, CSNK1D (Homo sapiens, UniProt P48730)", "T19 construct": "purchased DiscoveRx KINOMEscan", "test": "KINOMEscan", "assay_type": "binding", "settings": "read-out: % Ctrl"}, "MEK3": {"molecular_target": "T20, MEK3 (Homo sapiens, UniProt P46734)", "T20 construct": "purchased DiscoveRx KINOMEscan", "test": "KINOMEscan", "assay_type": "binding", "settings": "read-out: % Ctrl"}, "SRC": {"molecular_target": "T21, SRC (Homo sapiens, UniProt P12931)", "T21 construct": "purchased DiscoveRx KINOMEscan", "test": "KINOMEscan", "assay_type": "binding", "settings": "read-out: % Ctrl"}, "CSNK1G3": {"molecular_target": "T22, CSNK1G3 (Homo sapiens, UniProt Q9Y6M4)", "T22 construct": "purchased DiscoveRx KINOMEscan", "test": "KINOMEscan", "assay_type": "binding", "settings": "read-out: % Ctrl"}, "SRPK1": {"molecular_target": "T23, SRPK1 (Homo sapiens, UniProt Q96SB4)", "T23 construct": "purchased DiscoveRx KINOMEscan", "test": "KINOMEscan", "assay_type": "binding", "settings": "read-out: % Ctrl"}, "STK35": {"molecular_target": "T24, STK35 (Homo sapiens, UniProt Q8TDR2)", "T24 construct": "purchased DiscoveRx KINOMEscan", "test": "KINOMEscan", "assay_type": "binding", "settings": "read-out: % Ctrl"}, "TAOK2": {"molecular_target": "T25, TAOK2 (Homo sapiens, UniProt Q9UL54)", "T25 construct": "purchased DiscoveRx KINOMEscan", "test": "KINOMEscan", "assay_type": "binding", "settings": "read-out: % Ctrl"}, "DRAK1": {"molecular_target": "T26, DRAK1 (Homo sapiens, UniProt Q9UEE5)", "T26 construct": "purchased DiscoveRx KINOMEscan", "test": "KINOMEscan", "assay_type": "binding", "settings": "read-out: % Ctrl"}, "MRCKA": {"molecular_target": "T27, MRCKA (Homo sapiens, UniProt Q5VT25)", "T27 construct": "purchased DiscoveRx KINOMEscan", "test": "KINOMEscan", "assay_type": "binding", "settings": "read-out: % Ctrl"}, "NDR1": {"molecular_target": "T28, NDR1 (Homo sapiens, UniProt Q15208)", "T28 construct": "purchased DiscoveRx KINOMEscan", "test": "KINOMEscan", "assay_type": "binding", "settings": "read-out: % Ctrl"}, "NEK6": {"molecular_target": "T29, NEK6 (Homo sapiens, UniProt Q9HC98)", "T29 construct": "purchased DiscoveRx KINOMEscan", "test": "KINOMEscan", "assay_type": "binding", "settings": "read-out: % Ctrl"}, "VRK2": {"molecular_target": "T30, VRK2 (Homo sapiens, UniProt Q86Y07)", "T30 construct": "purchased DiscoveRx KINOMEscan", "test": "KINOMEscan", "assay_type": "binding", "settings": "read-out: % Ctrl"}, "WNK1": {"molecular_target": "T31, WNK1 (Homo sapiens, UniProt Q9H4A3)", "T31 construct": "purchased DiscoveRx KINOMEscan", "test": "KINOMEscan", "assay_type": "binding", "settings": "read-out: % Ctrl"}, "WNK2": {"molecular_target": "T32, WNK2 (Homo sapiens, UniProt Q9Y3S1)", "T32 construct": "purchased DiscoveRx KINOMEscan", "test": "KINOMEscan", "assay_type": "binding", "settings": "read-out: % Ctrl"}, "HASPIN": {"molecular_target": "T33, HASPIN (Homo sapiens, UniProt Q8TF76)", "T33 sequence (Q8TF76 1-798)": "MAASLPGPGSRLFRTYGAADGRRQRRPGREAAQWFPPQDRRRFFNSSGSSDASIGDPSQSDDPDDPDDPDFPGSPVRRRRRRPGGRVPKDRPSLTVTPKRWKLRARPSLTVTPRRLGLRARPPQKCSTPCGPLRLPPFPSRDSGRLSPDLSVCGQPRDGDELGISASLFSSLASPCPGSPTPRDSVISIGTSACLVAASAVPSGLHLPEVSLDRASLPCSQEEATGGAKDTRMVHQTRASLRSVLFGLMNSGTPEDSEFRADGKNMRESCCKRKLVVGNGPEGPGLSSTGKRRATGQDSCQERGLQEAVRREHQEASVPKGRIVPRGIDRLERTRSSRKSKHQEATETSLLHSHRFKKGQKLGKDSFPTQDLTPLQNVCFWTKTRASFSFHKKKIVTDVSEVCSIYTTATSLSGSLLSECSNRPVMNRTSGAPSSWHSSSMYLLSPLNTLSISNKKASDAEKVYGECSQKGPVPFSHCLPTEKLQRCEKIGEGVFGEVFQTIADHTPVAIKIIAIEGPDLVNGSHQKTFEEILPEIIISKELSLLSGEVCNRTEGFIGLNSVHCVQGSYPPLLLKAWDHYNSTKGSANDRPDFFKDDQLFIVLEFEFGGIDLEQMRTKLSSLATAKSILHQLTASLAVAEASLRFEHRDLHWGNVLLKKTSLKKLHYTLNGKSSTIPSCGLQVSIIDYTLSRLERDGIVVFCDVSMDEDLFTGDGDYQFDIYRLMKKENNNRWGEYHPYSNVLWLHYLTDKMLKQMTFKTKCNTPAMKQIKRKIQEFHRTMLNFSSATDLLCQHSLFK", "test": "KINOMEscan", "assay_type": "binding", "parameters": "purchased DiscoveRx KINOMEscan", "settings": "read-out: % Ctrl"}}, "data": [{"smiles": "CN1CCC(CNc2ccc3ncc(C(=O)Nc4cccc(OC(F)(F)F)c4)n3n2)CC1", "note": "[Cpd 2]", "values": [{"measurement": "IC50", "setting": "TYK2", "result": 65, "unit": "µM"}, {"measurement": "remaining binding at 1 µM", "setting": "FLT1", "result": 100, "unit": "%"}, {"measurement": "remaining binding at 1 µM", "setting": "PHKG1", "result": 100, "unit": "%"}, {"measurement": "remaining binding at 1 µM", "setting": "PHKG2", "result": 89, "unit": "%"}, {"measurement": "remaining binding at 1 µM", "setting": "PIK3C2B", "result": 48, "unit": "%"}, {"measurement": "remaining binding at 1 µM", "setting": "ACVRL1", "result": 100, "unit": "%"}, {"measurement": "remaining binding at 1 µM", "setting": "BRAF(V600E)", "result": 100, "unit": "%"}, {"measurement": "remaining binding at 1 µM", "setting": "BRSK1", "result": 100, "unit": "%"}, {"measurement": "remaining binding at 1 µM", "setting": "JNK1", "result": 92, "unit": "%"}, {"measurement": "remaining binding at 1 µM", "setting": "PRKX", "result": 100, "unit": "%"}, {"measurement": "remaining binding at 1 µM", "setting": "KIT(A829P)", "result": 91, "unit": "%"}, {"measurement": "remaining binding at 1 µM", "setting": "RET(M918T)", "result": 100, "unit": "%"}, {"measurement": "remaining binding at 1 µM", "setting": "RIPK4", "result": 96, "unit": "%"}, {"measurement": "remaining binding at 1 µM", "setting": "LRRK2", "result": 68, "unit": "%"}, {"measurement": "remaining binding at 1 µM", "setting": "RPS6KA4(KD1-N-t.)", "result": 92, "unit": "%"}, {"measurement": "remaining binding at 1 µM", "setting": "MAK", "result": 94, "unit": "%"}, {"measurement": "remaining binding at 1 µM", "setting": "CLK1", "result": 100, "unit": "%"}, {"measurement": "remaining binding at 1 µM", "setting": "MAP4K3", "result": 95, "unit": "%"}, {"measurement": "remaining binding at 1 µM", "setting": "CSNK1D", "result": 100, "unit": "%"}, {"measurement": "remaining binding at 1 µM", "setting": "MEK3", "result": 94, "unit": "%"}, {"measurement": "remaining binding at 1 µM", "setting": "SRC", "result": 99, "unit": "%"}, {"measurement": "remaining binding at 1 µM", "setting": "CSNK1G3", "result": 100, "unit": "%"}, {"measurement": "remaining binding at 1 µM", "setting": "SRPK1", "result": 95, "unit": "%"}, {"measurement": "remaining binding at 1 µM", "setting": "STK35", "result": 92, "unit": "%"}, {"measurement": "remaining binding at 1 µM", "setting": "TAOK2", "result": 100, "unit": "%"}, {"measurement": "remaining binding at 1 µM", "setting": "DRAK1", "result": 97, "unit": "%"}, {"measurement": "remaining binding at 1 µM", "setting": "MRCKA", "result": 100, "unit": "%"}, {"measurement": "remaining binding at 1 µM", "setting": "NDR1", "result": 89, "unit": "%"}, {"measurement": "remaining binding at 1 µM", "setting": "NEK6", "result": 100, "unit": "%"}, {"measurement": "remaining binding at 1 µM", "setting": "VRK2", "result": 100, "unit": "%"}, {"measurement": "remaining binding at 1 µM", "setting": "WNK1", "result": 100, "unit": "%"}, {"measurement": "remaining binding at 1 µM", "setting": "WNK2", "result": 77, "unit": "%"}, {"measurement": "remaining binding at 1 µM", "setting": "HASPIN", "result": 30, "unit": "%"}]}]}
